“And” between values parts separate entries of the source, which are not always exact repeats. Equal entries are not always repeated. Where two headings read alike, the source gives them in different places.
Columns and labels:
[1] = Potential maximum tolerated dosages in mice; type: in vivo
Method: To determine potential maximum tolerated dosages, 3.12, 6.25, 10, and 12.5 mg/kg of CCL-106, for 2, 2, 1, and 1 doses respectively, were administered to mice. […] Mice were administered high doses of CCL-104 and CCL-106.

AsPC-1 = test: CellTiterGlo cell viability, AsPC-1 cells; type: cell-based; settings: Homo sapiens, ASPC1, 72 h
Method: The IC50 values for (R)-H4CBD, (S)-H4CBD, H4CBDV racemic mixture, and bortezomib were determined. Compound treatment of cells started one day after seeding with a final DMSO concentration of 0.1% and was performed by nanodrop-dispensing using a Tecan Dispenser. 0.1% DMSO (solvent) and Staurosporine (1,0E-05M) served as high control (100% viability) and low control (0% viability), respectively. For the assays, cells were seeded in white cell culture-treated flat and clear bottom multiwell plates and incubated at 37° C. overnight before compounds were added. After incubation for 72 h at 37° C. at 5% or 10% CO2 dependent on the medium, cell plates were equilibrated to room temperature for one hour, CellTiterGlo reagent (Promega) was added and luminescence was measured approximately an hour later using a luminometer.
Raw data were converted into percent cell viability relative to the high and low control, which were set to 100% and 0%, respectively. IC50 calculation was performed using GraphPad Prism software with a variable slope sigmoidal response fitting model using 0% viability as bottom constraint and 100% viability as top constraint. IC50 results in PANC-1, MIA-PaCa2, and AsPC-1 cells for (R)-H4CBD, (S)-H4CBD, H4CBDV racemic mixture, and bortezomib are shown in FIGS. 10-12 and Table 2

[2] = test system: A549 Lung Carcinoma Epithelial Cells (CCL-185 from ATCC); test: Percent viability of lung carcinoma cells; type: cell-based; settings: Homo sapiens, A549, read-out: Percent viability of cells, Mean (%)
Method: GR-X1=H4CBDV, GR-X2=(R)-H4CBD, GR-X3=(S)-H4CBD, GR-X4=HHC.
The IC50 of the hydrogenated cannabivarin, hexahydrocannabidivarin (H4CBDV), (R)-H4CBD, (S)-H4CBD, HHC racemic mixture, and gemcitabine, paclitaxel, and 5-fluorouracil were determined in lung carcinoma cells (A549 Lung Carcinoma Epithelial Cells (CCL-185 from ATCC)) as shown in FIGS. 39-43 and Table 3.

[3] = Pharmacokinetics in CD1 male mice (plasma, HPLC-MS); type: in vivo; settings: for MRT inf: read-out: MRTInf—obs; for Vd: read-out: Vss—obs
Method: Formulation and dosing information for pharmacokinetic data is provided in Table 5 (CD=beta-cyclodextrin). The solutions were sonicated, vortexed, and slightly heated resulting in a clear purple liquid.
Pharmacokinetic data was produced by administering CD1 male mice with CCL-104 (H4CBD) or CCL-106 (H4CBDV). Each compound was formulated and administered as shown in Example 3. Plasma was sampled from the IV administered mice at 5 min, 15 min, 30 min, 1 hr, 2 hr, 4 hr post dose. Plasma was sampled from the PO administered mice at 15 min, 30 min, 1 hr, 2 hr, 4 hr, 6 hr post dose. The desired serial concentrations of working solutions were achieved by diluting stock solution of analyte with 50% acetonitrile in water solution. 10 μL of working solutions (0.5, 1, 2, 5, 10, 50, 100, 500, 1000 ng/mL) were added to 10 μL of the blank male CD1 mice plasma to achieve calibration standards of 0.5-1000 ng/mL (0.5, 1, 2, 5, 10, 50, 100, 500, 1000 ng/mL) in a total volume of 20 μL. Six quality control samples at 1 ng/mL, 2 ng/mL, 5 ng/mL, 10 ng/mL, 50 ng/mL and 800 ng/mL for plasma were prepared independently of those used for the calibration curves. These QC samples were prepared on the day of analysis in the same way as calibration standards. 20 μL standards, 20 μL QC samples and 20 μL unknown samples (10 μL plasma with 10 μL blank solution) were added to 200 μL of methanol containing IS mixture for precipitating protein respectively. Then the samples were vortexed for 30 seconds, then centrifuged at 4° C., 4,000 rpm for 15 min. The supernatant was diluted with water at a ratio of 1:2. 15 μL of the diluted supernatant was injected into the LC/MS/MS system for quantitative analysis.

[4] = IV 10 mg/kg, individual mouse, 10 mg/kg
[5] = PO 10 mg/kg, individual mouse, 10 mg/kg
[6] = male, CD1, mouse, plasma, iv, 10 mg/kg, IV 10 mg/kg, Mean of 4 mice
[7] = male, CD1, mouse, plasma, iv, 10 mg/kg, IV 10 mg/kg, individual mouse
[8] = male, CD1, mouse, plasma, po, 10 mg/kg, PO 10 mg/kg, Mean of 4 mice
[9] = male, CD1, mouse, plasma, po, 10 mg/kg, PO 10 mg/kg, individual mouse

With `CCCc1cc(O)c(C2CC(C)CCC2C(C)C)c(O)c1` (racemic) [CCL-106, hexahydrocannabidivarin] as the compound, how does the toxicity observed ([1]; 12.5 mg/kg, mouse) read?
Its toxicity observed is “acute toxicity for CCL-106 (strong tremors and weight loss)”.

What about the toxicity observed ([1]; 15.63 mg/kg dose at each of days 5, 6, and 7, mouse) of the same compound?
Its toxicity observed is “seizure like symptoms but recovered more quickly (around 30 minutes)”.

And the toxicity observed ([1]; 31.25 mg/kg dose, mouse)?
The toxicity observed was “stop moving after about 2 minutes and have seizure like symptoms”.

What about the toxicity observed ([1]; 39.06 mg/kg dose, mouse) of the same compound?
Its toxicity observed is “killed a mouse immediately”.

What about the toxicity observed ([1]; 46.87 mg/kg dose, mouse) of the same compound?
The toxicity observed was “killed a mouse immediately”.

And the toxicity observed ([1]; 3.12, 6.25, and 10 mg/kg dose, mice)?
Its toxicity observed is “No toxicity was observed”.

And the tail vein toxicity ([1]; daily 31.25 mg/kg doses, mouse)?
The tail vein toxicity was “displayed tail vein toxicity on day 2”.

What about the IC50 (AsPC-1) of the same compound?
The IC50 was 1050 nM.

And the viability at 1.56 µM ([2]; agent concentration 1.56 uM)?
Its viability at 1.56 µM is 92.1%.

And the viability at 3.12 µM ([2]; agent concentration 3.12 uM)?
Its viability at 3.12 µM is 95.2%.

What about the viability at 6.25 µM ([2]; agent concentration 6.25 uM) of the same compound?
Its viability at 6.25 µM is 93.4%.

What about the viability at 12.5 µM ([2]; agent concentration 12.5 uM) of the same compound?
The viability at 12.5 µM was 93.6%.

And the viability at 25 µM ([2]; agent concentration 25 uM)?
The viability at 25 µM was 21.5%.

And the viability at 50 µM ([2]; agent concentration 50 uM)?
Its viability at 50 µM is 5.65%.

And the “AUClast/D (h*mg/mL)” value ([3]; IV 10 mg/kg, Mean of 4 mice)?
Its value is 184 h*ng/mL per mg/kg.

And the “AUC—% Extrap—obs” value ([3]; IV 10 mg/kg, Mean of 4 mice)?
The value was 18.4%.

What about the “Cl_obs” value ([3]; IV 10 mg/kg, Mean of 4 mice) of the same compound?
Its value is 74.7 mL/min/kg.

And the “AUCInf” value [3, 4]?
The value was 2519 ng·h/mL and 2031 ng·h/mL and 2513 ng·h/mL.

And the “AUClast” value [3, 4]?
Its value is 2047 ng·h/mL and 1630 ng·h/mL and 1952 ng·h/mL.

And the “AUC—% Extrap—obs” value [3, 4]?
The value was 12.7% and 18.7% and 19.8% and 22.3%.

And the “C0” value [3, 4]?
Its value is 4701 ng/mL and 5792 ng/mL and 5062 ng/mL.

What about the “Cl_obs” value [3, 4] of the same compound?
The value was 84.1 mL/min/kg and 66.2 mL/min/kg and 82.1 mL/min/kg and 66.3 mL/min/kg.

What about the “MRTInf—obs” value [3, 4] of the same compound?
Its value is 2.11 h and 2.16 h and 2.49 h.

What about the “T1/2” value [3, 4] of the same compound?
The value was 2.14 h and 2.50 h and 2.99 h.

What about the “Vss—obs” value [3, 4] of the same compound?
The value was 8.38 L/kg and 10.7 L/kg and 9.89 L/kg.

And the “AUClast/D (h*mg/mL)” value ([3]; PO 10 mg/kg, Mean of 4 mice)?
Its value is 31.6 h*ng/mL per mg/kg.

What about the “AUC—% Extrap—obs” value ([3]; PO 10 mg/kg, Mean of 4 mice) of the same compound?
The value was 25.7%.

What about the “AUCInf” value [3, 5] of the same compound?
The value was 404 ng·h/mL and 453 ng·h/mL and 479 ng·h/mL.

What about the “AUClast” value [3, 5] of the same compound?
Its value is 308 ng·h/mL and 414 ng·h/mL and 226 ng·h/mL.

What about the “AUC—% Extrap—obs” value [3, 5] of the same compound?
Its value is 18.1% and 23.7% and 8.47% and 52.7%.

And the “Cmax” value [3, 5]?
Its value is 233 ng/mL and 177 ng/mL and 352 ng/mL and 127 ng/mL.

And the “F (%)” value [3, 5]?
Its value is 16.7% and 20.0% and 12.3%.

And the “MRTInf—obs” value [3, 5]?
The value was 3.27 h and 4.01 h and 2.21 h and 10.3 h.

And the “T1/2” value [3, 5]?
The value was 3.20 h and 3.31 h and 2.04 h and 8.02 h.

And the AUC(0-inf) [3, 6]?
The AUC(0-inf) was 2260 ng·h/mL.

And the AUC(0-t) [3, 6]?
Its AUC(0-t) is 1840 ng·h/mL.

And the half-life [3, 6]?
The half-life was 2.32 h.

What about the C0 ([3]; male, CD1, mouse, plasma, iv, 10 mg/kg, IV 10 mg/kg, Mean of 4 mice, read-out: C0) of the same compound?
Its C0 is 4820 ng/mL.

And the MRT inf [3, 6]?
The MRT inf was 2.1 h.

What about the Vd [3, 6] of the same compound?
The Vd was 9.3 L/kg.

What about the AUC(0-inf) [3, 7] of the same compound?
The AUC(0-inf) was 1980 ng·h/mL.

And the AUC(0-t) [3, 7]?
Its AUC(0-t) is 1730 ng·h/mL.

And the half-life [3, 7]?
The half-life was 1.63 h.

What about the C0 ([3]; male, CD1, mouse, plasma, iv, 10 mg/kg, IV 10 mg/kg, individual mouse, read-out: C0) of the same compound?
Its C0 is 3720 ng/mL.

What about the MRT inf [3, 7] of the same compound?
The MRT inf was 1.62 h.

What about the Vd [3, 7] of the same compound?
The Vd was 8.18 L/kg.

And the AUC(0-inf) [3, 8]?
The AUC(0-inf) was 429 ng·h/mL.

What about the AUC(0-t) [3, 8] of the same compound?
The AUC(0-t) was 316 ng·h/mL.

And the Tmax [3, 8]?
The Tmax was 0.25 h.

What about the bioavailability [3, 8] of the same compound?
The bioavailability was 16.5%.

What about the half-life [3, 8] of the same compound?
Its half-life is 4.14 h.

And the Cmax ([3]; male, CD1, mouse, plasma, po, 10 mg/kg, PO 10 mg/kg, Mean of 4 mice, read-out: Cmax)?
Its Cmax is 222 ng/mL.

And the MRT inf [3, 8]?
Its MRT inf is 4.9 h.

What about the AUC(0-inf) [3, 9] of the same compound?
The AUC(0-inf) was 383 ng·h/mL.

What about the AUC(0-t) [3, 9] of the same compound?
Its AUC(0-t) is 314 ng·h/mL.

What about the Tmax [3, 9] of the same compound?
The Tmax was 0.25 h.

What about the bioavailability [3, 9] of the same compound?
The bioavailability was 16.9%.
